Laboratory results from patent publication US20230123140A1, “DOSE TREATMENTS OF TAUOPATHIES” (AC Immune SA, priority 2020, published 2023).
Where “and” joins values, the source holds several entries; their conditions need not be identical. Identical values can stand only once.

How the values were obtained:
healthy subjects [1] = test: First-in-human study, multiple ascending dose (MAD) part: safety and tolerability; type: in vivo; conditions: MAD cohorts
Source text: (§1) A First-In-Human, Randomized, Placebo-Controlled, Double-Blind, SAD/MAD Study to Assess the Safety, Tolerability, Pharmacokinetics, and Pharmacodynamics of ACI-3024
(§2) The objective of the study is to assess the safety, tolerability, pharmacokinetics (PK), and pharmacodynamics (PD) of single ascending doses (SAD) and multiple ascending doses (MAD) of ACI-3024 in a first-in-human, randomized, placebo-controlled, double-blind, sequential SAD/MAD study with open-label food effect and pharmacodynamic assessment arms. The study comprises different parts to be conducted in Healthy Volunteers: • 1) one Single Ascending Dose (SAD) part in which several cohorts are being investigated with single ascending doses of ACI-3024. The food effect is also explored in this part. • 2) one Multiple Ascending Dose (MAD) part in which several cohorts are being investigated with multiple ascending doses of ACI-3024. Each study part is assessing the safety, tolerability, pharmacokinetics and pharmacodynamics of ACI-3024.
This part was conducted in elderly non-Japanese healthy subjects (MAD HV1 to MAD HV3 cohorts) and in non-elderly Japanese and non-Japanese healthy male subjects (MAD HV4 cohort).
The healthy subject part of Part III was a multiple dose, sequential group study. Overall, 30 healthy elderly male or female non Japanese subjects are being studied in 3 cohorts (Cohorts MAD HV1 to MAD-HV3), with each cohort consisting of 10 subjects. A cohort of 10 healthy non-elderly male Japanese and non-Japanese subjects were enrolled (MAD HV4) to collect safety, tolerability, PK, and PD biomarker data and to enable direct comparisons between non-elderly Japanese and non-Japanese subjects after multiple doses. The dose used in this cohort is based on previously conducted cohorts in non Japanese elderly healthy subjects to assess the effect of multiple doses in non-elderly male Japanese subjects compared to non-elderly non-Japanese male subjects. The MAD HV4 cohort was dosed in parallel with the MAD HV3 cohort. […]

healthy subjects [2] = test: First-in-human study, single ascending dose (SAD) part: safety and tolerability; type: in vivo; conditions: for number of AEs: healthy subjects
Source text: as §1, §2
This part comprised a single dose, sequential group design. Overall, 40 healthy non-elderly male subjects were enrolled in 5 cohorts (Cohorts S1 to S5), with each cohort consisting of 8 subjects.
No Japanese subjects were enrolled in Cohort S1. For Cohorts S2 through S5, 4 Japanese subjects and 4 non Japanese subjects were enrolled.
In each of Cohorts S1 to S5, 6 subjects (including 3 Japanese subjects in Cohorts S2 through S5) received ACI-3024 and 2 subjects (including 1 Japanese subject in Cohorts S2 through S5) received placebo. All doses were administered in the fasting state in accordance with a randomization schedule on the morning of Day 1, except for subjects in the food-effect cohort (Cohort S4), who were dosed 30 minutes after starting a high-fat breakfast in Treatment Period 2 only. Each subject received only a single dose of ACI-3024 or placebo during the study, except for subjects in the food effect cohort, who received a single dose of ACI-3024 or placebo in the fasting state followed by a single dose of ACI-3024 in the fed state. Thus, subjects in Cohort S4 received either 2 identical doses of ACI-3024 (6 subjects) or 1 dose of placebo and 1 dose of ACI-3024 (2 subjects). Six subjects of Cohort S4 received 750 mg dose of ACI-3024 and 2 subjects received placebo. After a period of wash-up all 8 subjects of Cohort S4 received a fat-breakfast and a 750 mg dose of ACI-3024.
The total duration of study participation for each subject (from Screening through Follow-up visit) was approximately 37 days, except for subjects in the food-effect cohort (Cohort S4), for whom the total duration was up to approximately 44 days.

respiratory function = test: Respiratory function evaluation in mice (whole body plethysmography); type: in vivo, mouse; conditions: single oral administration 100, 300 and 750 mg/kg, conscious female mice
Method: This study was conducted to evaluate the potential modifications of respiratory function by ACI-3024 when given as single dose to CD1 mice.
Doses of 100, 300 and 750 mg/kg were administered by oral gavage to 8 females/group. The control animals were administered vehicle. The dose volume was 10 mL/kg for all groups. Animals underwent a whole body plethysmography carried out starting 30 minutes before dosing up to 5 hours after; moreover, a subsequent 1-hour registration was conducted 24 hours post dose.

[3] = CSF concentrations of ACI-3024 in MAD cohort MAD-HV3; type: in vivo
Method: Methods for measuring the amount of administered compound, such as ACI-3024, in CSF of a subject are well know in the art. As an example, CSF can be drawn by lumbar puncture and content of the administered compound can be analysed by a LC-MS/MS method, among other methods.
Cohorts MAD-HV1 to MAD-HV3 comprised 10 elderly non-Japanese male or female subjects, 8 were treated with ACI-3024 and 2 were being given placebo. Cohort MAD-HV4 comprised 5 non-elderly Japanese subjects (4 treated with ACI-3024 and 1 given placebo) and 5 […] (4 treated with ACI-3024 and 1 given placebo). Only subjects from MAD HV3 cohort underwent CSF samplings to explore the CSF inflammatory markers, CSF PK, and CSF PD of ACI-3024. For all subjects, dosing was on […], inclusive, and a final single dose administration occurred on […]. Dose in cohort MAD HV1 was 500 mg of ACI-3024 or placebo, QD, fasted. Dose in cohorts MAD HV2 and MAD HV4 was 500 mg of ACI-3024 or placebo, BID (“bis in die” ie., twice a day), fed. Dose in cohort MAD HV3 was 1400 mg of ACI-3024 or placebo, QD (“quaque die” (once a day), fed.

[4] = Toxicokinetics in the 4-week mini-pig toxicity study; type: in vivo; conditions: for AUC(0-t) / Cmax / Tmax: Gottingen, minipig, plasma, Day 28, 450 mg/kg oral
Method: Doses tested, 50, 150 and 450 mg/kg were given by p.o. to 3 animals/sex/group daily. The control animals were administered vehicle. The dose volume was 5 mL/kg for all groups.
Toxico Kinetic (TK) was evaluated on all animals on study Day 1 and Day 28 at different time points.

[5] = both sexes, average M/F minipigs

Compound: Fc1ccc2c3c([nH]c2c1)CCN(c1ccc2oc(N4CCOCC4)nc2c1)C3 [ACI-3024]
- serious adverse events of liver injury possibly related to study drug (healthy subjects [1]; 14 days): 2
- AEs considered related or possibly related to study drug (healthy subjects [1]; 14 days, of 89 AEs): 33
- SAEs (healthy subjects [1]; dose below 1000 mg/day): did not show SAEs
- SAEs or AEs leading to discontinuation (healthy subjects [2]; SAD cohorts, 25 to 1500 mg): no SAEs or AEs leading to discontinuation from the study
- vital signs, ECG values, physical or neurological examinations (healthy subjects [2]; SAD cohorts, 25 to 1500 mg): no clinically significant observations
- severity of AEs (healthy subjects [2]; SAD cohorts, 25 to 1500 mg (all AEs of the part, placebo included)): mild
- overall safety and tolerability (healthy subjects [2]; SAD study, up to the highest administered dose of 1500 mg): safe and well tolerated
- number of AEs (healthy subjects [2]; single oral dose 25 mg): 2
- number of AEs (healthy subjects [2]; single oral dose 100 mg): 0
- number of AEs (healthy subjects [2]; single oral dose 300 mg): 3
- number of AEs (healthy subjects [2]; single oral dose 750 mg (fed and fasted states)): 6
- number of AEs (healthy subjects [2]; single oral dose 1500 mg): 2
- effect on respiratory parameters (respiratory function): did not exert effect
- CSF pre-dose concentrations versus target ([3]; MAD, 1400 mg, target established in animal models): > 30 nM
- Kp ([3]; both sexes, human, CSF, oral, elderly subjects, multiple doses of 1400 mg QD (fed), read-out: CSF concentration as share of the corresponding plasma concentration): 0.003 to 0.015
- dose that would provide sufficient CSF exposure (30 nM) ([3]; extrapolated from 1400 mg CSF data): 300 to 400 mg/day
- pre-dose (Cmin) CSF concentration ([3]; multiple oral doses of 1400 mg, Day 7): 36.4±13.6 ng/mL and 90 nM
- dose proportionality of plasma exposure ([4]; 50 to 450 mg/kg, except males on Day 1): approximately dose-proportionally
- AUC(0-t) ([4]; female minipigs): 101 µg·h/mL
- Cmax ([4]; female minipigs): 7350 ng/mL
- Tmax ([4]; female minipigs): 4 h
- AUC(0-t) ([4]; male minipigs): 233 µg·h/mL
- Cmax ([4]; male minipigs): 12300 ng/mL
- Tmax ([4]; male minipigs): 6 h
- AUC(0-t) [4, 5]: 167 µg·h/mL
- Cmax [4, 5]: 9840 ng/mL
- Tmax [4, 5]: 5 h
